Assay results as given in patent US8962674B2 (Tokyo Institute of Technology, priority 2006, dated 2015).

SMILES	melting point
CN(C)c1ccc(-c2ccccc2)cc1/C=C/C(=O)CC(=O)/C=C/c1ccc(O)cc1 [CU537, (1E,6E)-1-(4-dimethylaminobiphenyl-3-yl)-7-(4-hydroxyphenyl)hepta-1,6-diene-3,5-dione]	82 to 88 °C
O=C(/C=C/c1ccc(O)cc1)CC(=O)/C=C/c1ccccc1-c1ccncc1 [CU514, (1E,6E)-1-(4-hydroxyphenyl)-7-[2-(pyridin-4-yl)phenyl]hepta-1,6-diene-3,5-dione]	249 to 256 °C
COc1ccc(/C=C/C(=O)CC(=O)/C=C/c2ccc(N(C)C)c3ccccc23)cc1O [CU168, (1E,6E)-1-(4-dimethylaminonaphthalen-1-yl)-7-(3-hydroxy-4-methoxyphenyl)hepta-1,6-diene-3,5-dione]	146 to 150 °C
COCOc1ccc(OC)cc1/C=C/C(=O)CC(=O)/C=C/c1cc(OC)ccc1O [CU456, (1E,6E)-1-(2-hydroxy-5-methoxyphenyl)-7-[5-methoxy-2-(methoxymethoxy)phenyl]hepta-1,6-diene-3,5-dione]	131 to 138 °C
O=C(/C=C/c1cc2ccccc2[nH]1)CC(=O)/C=C/c1cc2ccccc2[nH]1 [CU393, (1E,6E)-1,7-bis(1H-indol-2-yl)hepta-1,6-diene-3,5-dione]	264 to 268 °C
O=C(/C=C/c1cccc2cc[nH]c12)CC(=O)/C=C/c1cccc2cc[nH]c12 [CU392, (1E,6E)-1,7-bis(1H-indol-7-yl)hepta-1,6-diene-3,5-dione]	211 to 215 °C
CC(C)(C)OC(=O)N[C@@H](Cc1ccccc1)C(=O)Nc1ccc(/C=C/C(=O)CC(=O)/C=C/c2ccc(O)cc2)cc1 [CU396, (1E,6E)-1-(4-hydroxyphenyl)-7-[4-((S)-2-tert-butoxycarbonylamino-3-phenylpropionylamino)phenyl]hepta-1,6-diene-3,5-dione]	116 to 121 °C
O=C(/C=C/c1ccc(O)cc1)CC(=O)/C=C/c1cc(O)ccc1O [CU090, (1E,6E)-1-(2,5-dihydroxyphenyl)-7-(4-hydroxyphenyl)hepta-1,6-diene-3,5-dione]	133 to 140 °C
CCN(CC)c1ccc(/C=C/C(=O)CC(=O)/C=C/c2ccc(O)cc2)c(OCCO)c1 [CU430, (1E,6E)-1-[4-diethylamino-2-(2-hydroxyethoxy)phenyl]-7-(4-hydroxyphenyl)hepta-1,6-diene-3,5-dione]	182 to 186 °C
COc1ccc(/C=C/C(=O)CC(=O)/C=C/c2ccc(N(C)C)cc2Cl)cc1O [CU202, (1E,6E)-1-(2-chloro-4-dimethylaminophenyl)-7-(3-hydroxy-4-methoxyphenyl)hepta-1,6-diene-3,5-dione]	160 to 164 °C
Cc1ccc(-n2cccc2/C=C/C(=O)CC(=O)/C=C/c2cccn2-c2ccc(C)cc2)cc1 [CU389, (1E,6E)-1,7-bis[1-(4-methylphenyl)-1H-pyrrol-2-yl]hepta-1,6-diene-3,5-dione]	151 to 155 °C
COc1ccc(/C=C/C(=O)CC(=O)/C=C/c2cn(Cc3ccccc3)c3ccccc23)cc1O [CU417, (1E,6E)-1-(1-benzyl-1H-indol-3-yl)-7-(3-hydroxy-4-methoxyphenyl)hepta-1,6-diene-3,5-dione]	194 to 199 °C
O=C(/C=C/c1ccc(O)cc1)CC(=O)/C=C/c1ccccc1-c1ccccc1 [CU472, (1E,6E)-1-(biphenyl-2-yl)-7-(4-hydroxyphenyl)hepta-1,6-diene-3,5-dione]	180 to 188 °C
O=C(/C=C/c1ccc2c(c1)OCCO2)CC(=O)/C=C/c1ccc2c(c1)OCCO2 [CU356, (1E,6E)-1,7-bis(1,4-benzodioxan-6-yl)hepta-1,6-diene-3,5-dione]	184 to 187 °C
COc1cc(/C=C/C(=O)CC(=O)/C=C/c2ccc3c(c2)OCCO3)ccc1O [CU209, (1E,6E)-1-(2,3-dihydrobenzo[1,4]dioxin-6-yl)-7-(4-hydroxy-3-methoxyphenyl)hepta-1,6-diene-3,5-dione]	141 to 145 °C
CN(C)c1cc(Br)ccc1/C=C/C(=O)CC(=O)/C=C/c1ccc(O)cc1 [CU533, (1E,6E)-1-(4-bromo-2-dimethylaminophenyl)-7-(4-hydroxyphenyl)hepta-1,6-diene-3,5-dione]	74 to 81 °C
COc1cc(/C=C/C(=O)CC(=O)/C=C/c2ccc(OC)c(O)c2)cc(OC)c1 [CU101, (1E,6E)-1-(3,5-dimethoxyphenyl)-7-(3-hydroxy-4-methoxyphenyl)hepta-1,6-diene-3,5-dione]	187 to 193 °C
COc1cc(/C=C/C(=O)CC(=O)/C=C/c2ccc(SC)cc2)ccc1O [CU012, (1E,6E)-1-(4-hydroxy-3-methoxyphenyl)-7-(4-methylthiophenyl)hepta-1,6-diene-3,5-dione]	147 to 149 °C
O=C(/C=C/c1ccc(O)cc1)CC(=O)/C=C/c1ccc2ccn(Cc3ccccc3)c2c1 [CU400, (1E,6E)-1-(1-benzyl-1H-indol-6-yl)-7-(4-hydroxyphenyl)hepta-1,6-diene-3,5-dione]	164 to 170 °C
CCN(CC)c1ccc(/C=C/C(=O)CC(=O)/C=C/c2ccc(O)c(OC)c2)c(OCc2ccccc2)c1 [CU437, (1E,6E)-1-(2-benzyloxy-4-diethylaminophenyl)-7-(4-hydroxy-3-methoxyphenyl)hepta-1,6-diene-3,5-dione]	60 to 65 °C
COc1cc(/C=C/C(=O)CC(=O)/C=C/c2c(O)cccc2OC)ccc1O [CU279, (1E,6E)-1-(2-hydroxy-6-methoxyphenyl)-7-(4-hydroxy-3-methoxyphenyl)hepta-1,6-diene-3,5-dione]	161 to 164 °C
COc1ccc(/C=C/C(=O)CC(=O)/C=C/c2cc(O)ccc2OC)cc1O [CU179, (1E,6E)-1-(3-hydroxy-4-methoxyphenyl)-7-(5-hydroxy-2-methoxyphenyl)hepta-1,6-diene-3,5-dione]	116 to 120 °C
COc1cc(/C=C/C(=O)CC(=O)/C=C/c2ccccc2OC)ccc1O [CU067, (1E,6E)-1-(4-hydroxy-3-methoxyphenyl)-7-(2-methoxyphenyl)hepta-1,6-diene-3,5-dione]	61 to 66 °C
O=C(/C=C/c1ccc(O)cc1)CC(=O)/C=C/c1ccc(N2CCN(Cc3ccccc3)CC2)nc1 [CU332, (1E,6E)-1-[6-(4-benzylpiperazin-1-yl)pyridin-3-yl]-7-(4-hydroxyphenyl)hepta-1,6-diene-3,5-dione]	132 to 138 °C
O=C(/C=C/c1ccc2cc[nH]c2c1)CC(=O)/C=C/c1ccc2cc[nH]c2c1 [CU391, (1E,6E)-1,7-bis(1H-indol-6-yl)hepta-1,6-diene-3,5-dione]	247 to 255 °C
COc1cc(O)ccc1/C=C/C(=O)CC(=O)/C=C/c1ccc(O)cc1 [CU083, (1E,6E)-1-(4-hydroxyphenyl)-7-(4-hydroxy-2-methoxyphenyl)hepta-1,6-diene-3,5-dione]	105 to 110 °C
O=C(/C=C/c1ccc(O)cc1)CC(=O)/C=C/c1ccc2c(c1)OCCO2 [CU232, (1E,6E)-1-(2,3-dihydrobenzo[1,4]dioxin-6-yl)-7-(4-hydroxyphenyl)hepta-1,6-diene-3,5-dione]	169 to 173 °C

Next, values leading:

melting point	SMILES
272 to 275 °C	O=C(/C=C/c1ccc(O)cc1)CC(=O)/C=C/c1cccc2ncccc12 [CU324, (1E,6E)-1-(4-hydroxyphenyl)-7-(quinolin-5-yl)hepta-1,6-diene-3,5-dione]
163 to 169 °C	COc1ccc(O)cc1CCC(=O)CC(=O)CCc1cc(O)ccc1OC [CU512, 1,7-bis(5-hydroxy-2-methoxyphenyl)heptane-3,5-dione]
161 to 165 °C	COc1cc(O)cc(/C=C/C(=O)CC(=O)/C=C/c2ccc(O)cc2)c1 [CU180, (1E,6E)-1-(4-hydroxyphenyl)-7-(3-hydroxy-5-methoxyphenyl)hepta-1,6-diene-3,5-dione]
138 to 142 °C	O=C(/C=C/c1cc(O)ccc1-c1cccc2ccccc12)CC(=O)CCc1ccc(O)cc1 [CU542, (E)-1-[5-hydroxy-2-(naphthalen-1-yl)phenyl]-7-(4-hydroxyphenyl)hept-1-ene-3,5-dione]
208 to 213 °C	Cn1c(/C=C/C(=O)CC(=O)/C=C/c2ccc(O)cc2)cc2ccccc21 [CU126, (1E,6E)-1-(4-hydroxyphenyl)-7-(1-methyl-1H-indol-2-yl)hepta-1,6-diene-3,5-dione]
173 to 176 °C	O=C(/C=C/c1ccc(O)cc1)CC(=O)/C=C/c1cccc(O)c1O [CU264, (1E,6E)-1-(2,3-dihydroxyphenyl)-7-(4-hydroxyphenyl)hepta-1,6-diene-3,5-dione]
170 to 173 °C	COc1cc(/C=C/C(=O)CC(=O)/C=C/c2cc(Cl)cc(Cl)c2)ccc1O [CU140, (1E,6E)-1-(3,5-dichlorophenyl)-7-(4-hydroxy-3-methoxyphenyl)hepta-1,6-diene-3,5-dione]
186 to 189 °C	COc1cc(/C=C/C(=O)CC(=O)/C=C/c2ccc(O)c(F)c2)ccc1O [CU032, (1E,6E)-1-(3-fluoro-4-hydroxyphenyl)-7-(4-hydroxy-3-methoxyphenyl)hepta-1,6-diene-3,5-dione]
251 to 255 °C	O=C(/C=C/c1ccc(O)cc1)CC(=O)/C=C/c1ccc2nccnc2c1 [CU348, (1E,6E)-1-(4-hydroxyphenyl)-7-(quinoxalin-6-yl)hepta-1,6-diene-3,5-dione]
212 to 217 °C	CN1CCN(c2ccc(/C=C/C(=O)CC(=O)/C=C/c3ccc(N4CCN(C)CC4)cc3)cc2)CC1 [CU386, (1E,6E)-1,7-bis[4-(4-methylpiperazin-1-yl)phenyl]hepta-1,6-diene-3,5-dione]
240 to 245 °C	O=C(/C=C/c1ccc(O)cc1)CC(=O)/C=C/c1ccc(O)c([N+](=O)[O-])c1 [CU039, (1E,6E)-1-(4-hydroxy-3-nitrophenyl)-7-(4-hydroxyphenyl)hepta-1,6-diene-3,5-dione]
241 to 250 °C	O=C(/C=C/c1ccc(O)cc1)CC(=O)/C=C/c1cc(Cl)ccc1[N+](=O)[O-] [CU465, (1E,6E)-1-(5-chloro-2-nitrophenyl)-7-(4-hydroxyphenyl)hepta-1,6-diene-3,5-dione]
209 to 213 °C	COc1cc(/C=C/C(=O)CC(=O)/C=C/c2ccc(O)c([N+](=O)[O-])c2)ccc1O [CU040, (1E,6E)-1-(4-hydroxy-3-methoxyphenyl)-7-(4-hydroxy-3-nitrophenyl)hepta-1,6-diene-3,5-dione]
